For two compounds, Ki results are on record in PMC2994807 (Biochemistry, 2010).

For assay [1], the target named is dialkylglycine decarboxylase (DGD); WT DGD (Burkholderia cepacia, UniProt P16932, M141R/W138F). The experiment in a line: biochemical.
The target in assay [2] is dialkylglycine decarboxylase (DGD); WT DGD (Burkholderia cepacia, UniProt P16932, W138F). The experiment in a line: biochemical.

The structures appear in SMILES notation.

By Ki is commonly meant the dissociation constant of the complex between target and ligand, obtained from inhibition or displacement. In assay [1], `N[C@H](CCC(=O)O)C(=O)O` [D-glutamate] came in with an inhibition constant Ki of 89 mM. `N[C@@H](C(=O)O)c1ccccc1` [D-phenylglycine] yielded a Ki in assay [2] of 50 mM.
